Assay results published in ChEMBL document CHEMBL4507284, “Data for DCP probe BI-1230” (2021).

Legend:
[1] = molecular target: 5'-AMP-activated protein kinase catalytic subunit alpha-2 (Homo sapiens) (UniProt P54646); details: Compound concentration 1000.0 nM
[2] = molecular target: Macrophage colony-stimulating factor 1 receptor (Homo sapiens) (UniProt P07333); details: Compound concentration 1000.0 nM
[3] = molecular target: MAP kinase-activated protein kinase 2 (Homo sapiens) (UniProt P49137); details: Compound concentration 1000.0 nM
[4] = molecular target: Sigma non-opioid intracellular receptor 1 (Homo sapiens) (UniProt Q99720); details: Compound concentration 10.0 uM
[5] = system: Tyrosine-protein kinase ABL1 (Homo sapiens), P00519 [H396P]; details: Compound concentration 1000.0 nM
[6] = molecular target: Serine/threonine-protein kinase Nek2 (Homo sapiens) (UniProt P51955); details: Compound concentration 1000.0 nM
[7] = system: Proto-oncogene tyrosine-protein kinase receptor Ret (Homo sapiens), P07949 [V804L]; details: Compound concentration 1000.0 nM
[8] = molecular target: MAP kinase-interacting serine/threonine-protein kinase 1 (Homo sapiens) (UniProt Q9BUB5); details: Compound concentration 1000.0 nM
[9] = molecular target: Tyrosine-protein kinase JAK1 (Homo sapiens) (UniProt P23458); details: Compound concentration 1000.0 nM
[10] = molecular target: Myosin light chain kinase 2, skeletal/cardiac muscle (Homo sapiens) (UniProt Q9H1R3); details: Compound concentration 1000.0 nM
[11] = molecular target: Receptor-interacting serine/threonine-protein kinase 2 (Homo sapiens) (UniProt O43353); details: Compound concentration 1000.0 nM
[12] = molecular target: Mitogen-activated protein kinase kinase kinase 4 (Homo sapiens) (UniProt Q9Y6R4); details: Compound concentration 1000.0 nM
[13] = molecular target: Dual specificity mitogen-activated protein kinase kinase 6 (Homo sapiens) (UniProt P52564); details: Compound concentration 1000.0 nM
[14] = molecular target: Cyclin-dependent kinase-like 2 (Homo sapiens) (UniProt Q92772); details: Compound concentration 1000.0 nM
[15] = molecular target: Serine/threonine-protein kinase RIO3 (Homo sapiens) (UniProt O14730); details: Compound concentration 1000.0 nM
[16] = molecular target: Peripheral plasma membrane protein CASK (Homo sapiens) (UniProt O14936); details: Compound concentration 1000.0 nM
[17] = molecular target: Tyrosine-protein kinase receptor UFO (Homo sapiens) (UniProt P30530); details: Compound concentration 1000.0 nM
[18] = molecular target: Serine/threonine-protein kinase pim-3 (Homo sapiens) (UniProt Q86V86); details: Compound concentration 1000.0 nM
[19] = molecular target: Tyrosine-protein kinase Fgr (Homo sapiens) (UniProt P09769); details: Compound concentration 1000.0 nM
[20] = molecular target: Mitogen-activated protein kinase kinase kinase 15 (Homo sapiens) (UniProt Q6ZN16); details: Compound concentration 1000.0 nM
[21] = molecular target: Uncharacterized serine/threonine-protein kinase SBK3 (Homo sapiens) (UniProt P0C264); details: Compound concentration 1000.0 nM
[22] = molecular target: Ribosomal protein S6 kinase alpha-4 (Homo sapiens) (UniProt O75676); details: Compound concentration 1000.0 nM
[23] = molecular target: Serine/threonine-protein kinase DCLK2 (Homo sapiens) (UniProt Q8N568); details: Compound concentration 1000.0 nM
[24] = molecular target: Receptor-type tyrosine-protein kinase FLT3 (Homo sapiens) (UniProt P36888); details: Compound concentration 1000.0 nM
[25] = molecular target: Myosin-IIIb (Homo sapiens) (UniProt Q8WXR4); details: Compound concentration 1000.0 nM
[26] = molecular target: Phosphorylase b kinase gamma catalytic chain, skeletal muscle/heart isoform (Homo sapiens) (UniProt Q16816); details: Compound concentration 1000.0 nM
[27] = molecular target: Serine/threonine-protein kinase LATS1 (Homo sapiens) (UniProt O95835); details: Compound concentration 1000.0 nM
[28] = molecular target: Serine/threonine-protein kinase haspin (Homo sapiens) (UniProt Q8TF76); details: Compound concentration 1000.0 nM
[29] = molecular target: Ribosomal protein S6 kinase alpha-1 (Homo sapiens) (UniProt Q15418); details: Compound concentration 1000.0 nM
[30] = molecular target: Casein kinase II subunit alpha' (Homo sapiens) (UniProt P19784); details: Compound concentration 1000.0 nM
[31] = molecular target: Serine/threonine-protein kinase SIK1 (Homo sapiens) (UniProt P57059); details: Compound concentration 1000.0 nM
[32] = molecular target: MAP kinase-interacting serine/threonine-protein kinase 2 (Homo sapiens) (UniProt Q9HBH9); details: Compound concentration 1000.0 nM
[33] = molecular target: Calcium/calmodulin-dependent protein kinase type II subunit gamma (Homo sapiens) (UniProt Q13555); details: Compound concentration 1000.0 nM
[34] = molecular target: Tyrosine-protein kinase Tec (Homo sapiens) (UniProt P42680); details: Compound concentration 1000.0 nM
[35] = molecular target: Ribosomal protein S6 kinase alpha-6 (Homo sapiens) (UniProt Q9UK32); details: Compound concentration 1000.0 nM
[36] = system: Phosphatidylinositol 4,5-bisphosphate 3-kinase catalytic subunit alpha isoform (Homo sapiens), P42336 [E545A]; details: Compound concentration 1000.0 nM
[37] = molecular target: Serine/threonine-protein kinase 26 (Homo sapiens) (UniProt Q9P289); details: Compound concentration 1000.0 nM
[38] = molecular target: Serine/threonine-protein kinase PRP4 homolog (Homo sapiens) (UniProt Q13523); details: Compound concentration 1000.0 nM
[39] = molecular target: Rho-associated protein kinase 1 (Homo sapiens) (UniProt Q13464); details: Compound concentration 1000.0 nM
[40] = molecular target: Tyrosine-protein kinase JAK1 (Homo sapiens) (UniProt P23458); details: Compound concentration 1000.0 nM; remark: listed apart in the source
[41] = molecular target: Interferon-induced, double-stranded RNA-activated protein kinase (Homo sapiens) (UniProt P19525); details: Compound concentration 1000.0 nM
[42] = molecular target: Tyrosine-protein kinase JAK3 (Homo sapiens) (UniProt P52333); details: Compound concentration 1000.0 nM
[43] = molecular target: Activin receptor type-2A (Homo sapiens) (UniProt P27037); details: Compound concentration 1000.0 nM
[44] = molecular target: Tyrosine-protein kinase receptor Tie-1 (Homo sapiens) (UniProt P35590); details: Compound concentration 1000.0 nM

Tyrosine-protein kinase JAK1 (Homo sapiens), sequence (P23458 whole entry): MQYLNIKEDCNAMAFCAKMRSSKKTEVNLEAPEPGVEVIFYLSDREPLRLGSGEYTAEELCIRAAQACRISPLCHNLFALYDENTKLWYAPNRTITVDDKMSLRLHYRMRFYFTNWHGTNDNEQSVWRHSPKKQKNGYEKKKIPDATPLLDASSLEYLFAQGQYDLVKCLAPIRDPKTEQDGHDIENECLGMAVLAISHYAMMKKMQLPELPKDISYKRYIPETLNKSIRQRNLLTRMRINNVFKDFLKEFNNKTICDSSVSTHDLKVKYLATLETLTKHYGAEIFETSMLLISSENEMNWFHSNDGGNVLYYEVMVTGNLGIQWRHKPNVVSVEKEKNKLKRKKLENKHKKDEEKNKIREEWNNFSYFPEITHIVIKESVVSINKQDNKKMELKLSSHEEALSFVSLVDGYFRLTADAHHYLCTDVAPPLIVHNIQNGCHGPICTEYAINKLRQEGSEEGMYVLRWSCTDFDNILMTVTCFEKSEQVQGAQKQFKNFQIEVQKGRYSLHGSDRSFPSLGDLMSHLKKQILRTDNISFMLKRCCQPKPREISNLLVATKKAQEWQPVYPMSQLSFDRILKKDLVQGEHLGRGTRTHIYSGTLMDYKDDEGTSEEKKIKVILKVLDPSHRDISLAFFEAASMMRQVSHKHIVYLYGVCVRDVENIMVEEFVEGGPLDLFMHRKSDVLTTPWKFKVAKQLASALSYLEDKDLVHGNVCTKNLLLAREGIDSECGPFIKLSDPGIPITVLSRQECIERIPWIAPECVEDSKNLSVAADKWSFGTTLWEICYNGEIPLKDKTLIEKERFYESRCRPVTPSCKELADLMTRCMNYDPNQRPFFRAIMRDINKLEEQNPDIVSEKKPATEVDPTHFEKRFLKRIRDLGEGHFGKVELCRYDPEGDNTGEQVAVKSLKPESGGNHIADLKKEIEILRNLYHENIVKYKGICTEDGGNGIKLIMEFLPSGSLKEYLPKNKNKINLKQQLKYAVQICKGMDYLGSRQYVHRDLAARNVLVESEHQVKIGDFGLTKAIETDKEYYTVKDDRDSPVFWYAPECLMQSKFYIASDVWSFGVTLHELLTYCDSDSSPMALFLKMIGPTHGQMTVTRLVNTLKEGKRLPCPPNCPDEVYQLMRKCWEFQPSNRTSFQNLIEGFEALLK
Receptor-type tyrosine-protein kinase FLT3 (Homo sapiens), sequence (P36888 whole entry): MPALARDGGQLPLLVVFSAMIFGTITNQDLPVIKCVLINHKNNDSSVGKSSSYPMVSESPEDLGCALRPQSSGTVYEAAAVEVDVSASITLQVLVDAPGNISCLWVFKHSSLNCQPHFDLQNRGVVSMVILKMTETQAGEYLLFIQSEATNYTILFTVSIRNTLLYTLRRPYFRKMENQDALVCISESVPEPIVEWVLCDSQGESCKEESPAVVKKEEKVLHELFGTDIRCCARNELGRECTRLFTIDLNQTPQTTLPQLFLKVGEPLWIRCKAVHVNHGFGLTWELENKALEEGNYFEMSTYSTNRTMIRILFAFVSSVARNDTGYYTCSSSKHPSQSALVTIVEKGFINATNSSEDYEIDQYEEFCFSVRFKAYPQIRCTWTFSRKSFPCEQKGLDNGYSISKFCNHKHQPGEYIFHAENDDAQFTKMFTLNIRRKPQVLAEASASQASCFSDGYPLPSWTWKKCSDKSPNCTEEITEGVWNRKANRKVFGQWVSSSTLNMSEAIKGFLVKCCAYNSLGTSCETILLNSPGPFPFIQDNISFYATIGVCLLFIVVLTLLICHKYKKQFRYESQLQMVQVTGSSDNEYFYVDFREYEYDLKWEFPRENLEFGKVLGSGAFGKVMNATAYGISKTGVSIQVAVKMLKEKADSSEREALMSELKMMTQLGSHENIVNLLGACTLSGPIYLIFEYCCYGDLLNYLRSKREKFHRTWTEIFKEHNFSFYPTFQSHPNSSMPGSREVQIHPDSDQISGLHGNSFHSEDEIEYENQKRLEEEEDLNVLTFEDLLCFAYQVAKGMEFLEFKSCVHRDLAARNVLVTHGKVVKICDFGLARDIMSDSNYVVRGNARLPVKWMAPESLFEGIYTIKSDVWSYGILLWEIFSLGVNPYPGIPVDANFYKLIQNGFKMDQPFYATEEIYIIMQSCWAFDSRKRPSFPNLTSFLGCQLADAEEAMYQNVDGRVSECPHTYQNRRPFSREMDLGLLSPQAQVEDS
Cyclin-dependent kinase-like 2 (Homo sapiens), sequence (Q92772 whole entry): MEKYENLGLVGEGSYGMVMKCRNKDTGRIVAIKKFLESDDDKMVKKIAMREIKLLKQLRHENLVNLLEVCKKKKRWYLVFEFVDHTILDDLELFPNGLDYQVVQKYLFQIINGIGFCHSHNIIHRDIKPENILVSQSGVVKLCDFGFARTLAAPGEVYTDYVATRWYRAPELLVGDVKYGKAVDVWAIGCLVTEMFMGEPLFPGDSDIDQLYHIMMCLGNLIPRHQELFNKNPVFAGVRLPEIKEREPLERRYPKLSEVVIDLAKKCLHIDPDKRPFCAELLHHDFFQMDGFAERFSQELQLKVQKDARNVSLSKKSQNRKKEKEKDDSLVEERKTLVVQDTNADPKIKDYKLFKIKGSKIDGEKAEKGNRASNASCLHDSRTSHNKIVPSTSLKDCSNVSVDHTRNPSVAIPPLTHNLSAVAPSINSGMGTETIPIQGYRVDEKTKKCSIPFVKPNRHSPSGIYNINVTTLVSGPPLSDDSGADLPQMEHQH
Calcium/calmodulin-dependent protein kinase type II subunit gamma (Homo sapiens), sequence (Q13555 whole entry): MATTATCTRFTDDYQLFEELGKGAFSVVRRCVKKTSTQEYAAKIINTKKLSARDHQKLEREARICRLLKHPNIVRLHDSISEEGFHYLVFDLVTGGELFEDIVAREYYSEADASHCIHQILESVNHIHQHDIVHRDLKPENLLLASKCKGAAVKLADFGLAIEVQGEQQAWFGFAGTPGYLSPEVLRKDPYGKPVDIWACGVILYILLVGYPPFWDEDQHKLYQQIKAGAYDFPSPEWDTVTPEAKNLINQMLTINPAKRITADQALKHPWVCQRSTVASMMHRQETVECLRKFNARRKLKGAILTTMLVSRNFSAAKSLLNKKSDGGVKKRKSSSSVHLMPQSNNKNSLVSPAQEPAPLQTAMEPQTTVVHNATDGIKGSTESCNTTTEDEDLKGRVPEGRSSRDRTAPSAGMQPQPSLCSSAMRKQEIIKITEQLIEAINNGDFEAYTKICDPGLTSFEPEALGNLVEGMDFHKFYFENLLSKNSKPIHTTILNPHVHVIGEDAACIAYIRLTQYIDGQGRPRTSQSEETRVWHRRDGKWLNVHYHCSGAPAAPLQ
Sigma non-opioid intracellular receptor 1 (Homo sapiens), sequence (Q99720 whole entry): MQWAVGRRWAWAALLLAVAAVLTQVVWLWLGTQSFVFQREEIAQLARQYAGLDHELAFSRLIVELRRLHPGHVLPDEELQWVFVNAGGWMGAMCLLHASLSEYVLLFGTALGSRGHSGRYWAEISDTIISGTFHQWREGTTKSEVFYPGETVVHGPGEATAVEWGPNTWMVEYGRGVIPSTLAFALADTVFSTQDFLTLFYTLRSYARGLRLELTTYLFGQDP
Serine/threonine-protein kinase PRP4 homolog (Homo sapiens), sequence (Q13523 whole entry): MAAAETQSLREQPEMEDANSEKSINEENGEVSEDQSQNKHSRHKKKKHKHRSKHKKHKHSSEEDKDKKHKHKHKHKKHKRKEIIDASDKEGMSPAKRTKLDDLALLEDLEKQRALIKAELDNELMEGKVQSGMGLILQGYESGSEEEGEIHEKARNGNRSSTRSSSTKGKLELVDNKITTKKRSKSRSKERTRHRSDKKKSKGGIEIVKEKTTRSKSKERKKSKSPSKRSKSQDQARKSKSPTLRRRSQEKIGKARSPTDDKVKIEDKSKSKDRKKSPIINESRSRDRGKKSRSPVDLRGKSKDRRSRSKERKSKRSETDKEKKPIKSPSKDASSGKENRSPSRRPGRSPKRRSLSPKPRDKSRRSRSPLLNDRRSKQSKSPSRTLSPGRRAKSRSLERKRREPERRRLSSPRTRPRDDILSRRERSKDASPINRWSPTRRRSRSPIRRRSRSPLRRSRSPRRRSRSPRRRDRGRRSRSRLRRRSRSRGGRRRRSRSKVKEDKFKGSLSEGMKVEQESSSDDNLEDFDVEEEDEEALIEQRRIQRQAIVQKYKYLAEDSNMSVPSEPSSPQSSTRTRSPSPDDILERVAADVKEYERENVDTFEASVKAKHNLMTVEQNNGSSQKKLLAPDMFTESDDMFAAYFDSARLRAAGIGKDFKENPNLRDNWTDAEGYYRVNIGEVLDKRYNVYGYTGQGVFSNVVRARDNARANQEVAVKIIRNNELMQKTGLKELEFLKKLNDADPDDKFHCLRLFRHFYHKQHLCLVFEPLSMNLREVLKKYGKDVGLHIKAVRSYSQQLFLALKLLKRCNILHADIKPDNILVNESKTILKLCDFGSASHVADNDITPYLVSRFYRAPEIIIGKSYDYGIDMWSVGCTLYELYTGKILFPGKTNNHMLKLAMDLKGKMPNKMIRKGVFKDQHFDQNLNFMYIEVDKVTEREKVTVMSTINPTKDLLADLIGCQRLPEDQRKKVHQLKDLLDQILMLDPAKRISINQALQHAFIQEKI
Serine/threonine-protein kinase Nek2 (Homo sapiens), sequence (P51955 whole entry): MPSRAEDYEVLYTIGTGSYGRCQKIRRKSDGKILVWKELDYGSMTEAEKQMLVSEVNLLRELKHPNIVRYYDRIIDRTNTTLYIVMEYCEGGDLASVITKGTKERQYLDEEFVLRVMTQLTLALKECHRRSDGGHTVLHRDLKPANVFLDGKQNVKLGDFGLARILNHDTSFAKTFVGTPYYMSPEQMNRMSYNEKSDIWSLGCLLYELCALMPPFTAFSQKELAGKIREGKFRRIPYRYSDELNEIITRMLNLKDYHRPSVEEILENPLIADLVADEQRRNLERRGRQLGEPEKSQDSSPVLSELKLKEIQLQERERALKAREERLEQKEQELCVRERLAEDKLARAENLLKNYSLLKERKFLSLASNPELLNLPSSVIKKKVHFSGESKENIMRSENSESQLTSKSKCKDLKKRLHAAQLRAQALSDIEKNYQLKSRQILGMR

How did the residual activity [1] turn out when `COc1ccc2c(O[C@@H]3C[C@H]4C(=O)N[C@]5(C(=O)O)CC5/C=C\CCCCC[C@H](NC(=O)OC5CCCC5)C(=O)N4C3)cc(-c3csc(NC(=O)C(C)C)n3)nc2c1C` (stereo partly drawn) [BI 1230] was run?
The residual activity was 87%.

And the residual activity [2]?
Its residual activity is 89%.

What about the residual activity [3] of the same compound?
The residual activity was 60%.

And the inhibition [4]?
The inhibition was 42.1%.

And the residual activity [5]?
Its residual activity is 77%.

What about the residual activity [6] of the same compound?
The residual activity was 94%.

What about the residual activity [7] of the same compound?
Its residual activity is 95%.

What about the residual activity [8] of the same compound?
The residual activity was 79%.

And the residual activity [9]?
Its residual activity is 75%.

What about the residual activity [10] of the same compound?
Its residual activity is 100%.

And the residual activity [11]?
The residual activity was 100%.

What about the residual activity [12] of the same compound?
Its residual activity is 74%.

And the residual activity [13]?
The residual activity was 100%.

What about the residual activity [14] of the same compound?
Its residual activity is 89%.

What about the residual activity [15] of the same compound?
The residual activity was 100%.

And the residual activity [16]?
The residual activity was 97%.

What about the residual activity [17] of the same compound?
Its residual activity is 97%.

What about the residual activity [18] of the same compound?
Its residual activity is 94%.

And the residual activity [19]?
The residual activity was 100%.

And the residual activity [20]?
The residual activity was 70%.

What about the residual activity [21] of the same compound?
Its residual activity is 99%.

What about the residual activity [22] of the same compound?
Its residual activity is 96%.

What about the residual activity [23] of the same compound?
The residual activity was 95%.

What about the residual activity [24] of the same compound?
Its residual activity is 88%.

What about the residual activity [25] of the same compound?
Its residual activity is 68%.

And the residual activity [26]?
Its residual activity is 96%.

And the residual activity [27]?
Its residual activity is 100%.

And the residual activity [28]?
Its residual activity is 97%.

What about the residual activity [29] of the same compound?
Its residual activity is 74%.

What about the residual activity [30] of the same compound?
The residual activity was 100%.

And the residual activity [31]?
Its residual activity is 100%.

And the residual activity [32]?
Its residual activity is 70%.

And the residual activity [33]?
The residual activity was 100%.

And the residual activity [34]?
Its residual activity is 100%.

And the residual activity [35]?
The residual activity was 92%.

What about the residual activity [36] of the same compound?
Its residual activity is 100%.

And the residual activity [37]?
Its residual activity is 95%.

What about the residual activity [38] of the same compound?
The residual activity was 93%.

What about the residual activity [39] of the same compound?
The residual activity was 98%.

And the residual activity [40]?
The residual activity was 100%.

And the residual activity [41]?
The residual activity was 100%.

And the residual activity [42]?
Its residual activity is 88%.

What about the residual activity [43] of the same compound?
Its residual activity is 72%.

What about the residual activity [44] of the same compound?
Its residual activity is 100%.

How did the residual activity [1] turn out when `O=C(N[C@H]1CCCCC/C=C\C2C[C@@]2(C(=O)O)NC(=O)[C@@H]2C[C@@H](Oc3ccncc3)CN2C1=O)OC1CCCC1` (stereo partly drawn) [BI 1675] was run?
Its residual activity is 71%.

And the residual activity [2]?
The residual activity was 92%.

What about the residual activity [3] of the same compound?
Its residual activity is 89%.

What about the inhibition [4] of the same compound?
The inhibition was 11.1%.

What about the residual activity [5] of the same compound?
The residual activity was 81%.

And the residual activity [6]?
Its residual activity is 94%.

And the residual activity [7]?
The residual activity was 86%.

And the residual activity [8]?
The residual activity was 79%.

What about the residual activity [9] of the same compound?
Its residual activity is 89%.

What about the residual activity [10] of the same compound?
Its residual activity is 100%.

What about the residual activity [11] of the same compound?
The residual activity was 100%.

And the residual activity [12]?
Its residual activity is 91%.

What about the residual activity [13] of the same compound?
The residual activity was 94%.

What about the residual activity [14] of the same compound?
Its residual activity is 100%.

What about the residual activity [15] of the same compound?
Its residual activity is 100%.

What about the residual activity [16] of the same compound?
The residual activity was 89%.

What about the residual activity [17] of the same compound?
Its residual activity is 95%.

What about the residual activity [18] of the same compound?
Its residual activity is 100%.

What about the residual activity [19] of the same compound?
Its residual activity is 100%.

What about the residual activity [20] of the same compound?
Its residual activity is 68%.

And the residual activity [21]?
Its residual activity is 79%.

What about the residual activity [22] of the same compound?
The residual activity was 100%.

And the residual activity [23]?
The residual activity was 93%.

And the residual activity [24]?
Its residual activity is 93%.

What about the residual activity [25] of the same compound?
Its residual activity is 38%.

And the residual activity [26]?
Its residual activity is 88%.

What about the residual activity [27] of the same compound?
The residual activity was 99%.

What about the residual activity [28] of the same compound?
The residual activity was 100%.

What about the residual activity [29] of the same compound?
The residual activity was 100%.

And the residual activity [30]?
The residual activity was 100%.

What about the residual activity [31] of the same compound?
The residual activity was 83%.

What about the residual activity [32] of the same compound?
The residual activity was 75%.

What about the residual activity [33] of the same compound?
The residual activity was 86%.

What about the residual activity [34] of the same compound?
Its residual activity is 100%.

What about the residual activity [35] of the same compound?
The residual activity was 60%.

And the residual activity [36]?
The residual activity was 100%.

And the residual activity [37]?
The residual activity was 97%.

And the residual activity [38]?
The residual activity was 92%.

What about the residual activity [39] of the same compound?
Its residual activity is 100%.

What about the residual activity [40] of the same compound?
Its residual activity is 96%.

And the residual activity [41]?
The residual activity was 100%.

And the residual activity [42]?
Its residual activity is 100%.

And the residual activity [43]?
The residual activity was 96%.

And the residual activity [44]?
The residual activity was 100%.
